# Entries after “also recorded” stand apart in the source; their conditions may differ.
# What was measured:
# lipoxin transport system = assay: [3H]LXA4 influx into human neutrophils (unidirectional tracer flux); settings: for [3H]LXA4 Influx in presence of eicosanoid: uptake at 10 and 20 min
# [1] = target: T1, specific lipoxin receptors (Homo sapiens, UniProt P25090); assay: [3H]LXA4 ligand binding to human neutrophils
# T1 sequence (P25090 1-351): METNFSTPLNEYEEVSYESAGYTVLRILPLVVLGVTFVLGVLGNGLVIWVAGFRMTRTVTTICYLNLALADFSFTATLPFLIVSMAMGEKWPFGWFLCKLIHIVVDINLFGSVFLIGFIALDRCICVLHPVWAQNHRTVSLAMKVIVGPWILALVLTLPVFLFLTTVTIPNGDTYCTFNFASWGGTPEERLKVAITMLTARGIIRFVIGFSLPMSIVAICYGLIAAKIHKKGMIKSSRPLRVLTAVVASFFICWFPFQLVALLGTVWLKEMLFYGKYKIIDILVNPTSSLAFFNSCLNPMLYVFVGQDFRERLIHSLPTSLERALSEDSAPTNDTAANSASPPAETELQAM
# Experimental: (§1) Influx rates were calculated by fitting the data points to a single exponential equation (Eq. 1). Results have been taken from three experiments based upon duplicate determinations. […] Specific binding was taken as the difference between total and non-specific binding. […] Results are from three separate experiments, each performed in triplicate.
# human neutrophils = assay: [3H]LXA4 methyl ester influx into human neutrophils; type: cell-based
# Experimental: Incubations were performed at 37° C. in capped, plastic tubes (Falcon Plastics, Oxnard, Calif.) under various experimental conditions (neutrophils 15-20×10^6 /ml). […] At stated intervals, duplicate aliquots of the cell suspensions were layered onto 0.5 ml of silicone oil (Versilube F-5, General Electric Corp., Waterford, N.Y.) contained in 1.5 ml plastic tubes and centrifuged for 1 min at 8,000 g in a microcentrifuge (Beckman Instruments, Fullerton, Calif.).
# The aqueous and oil phases were aspirated and discarded. […] Influx is expressed here as fmol/10^6 cells/min whereas flux rates in all previous work from our laboratory (L.S.) have been reported in meq/liter of cell water.min.
# as §1
smiles,measurement,setting,value
"O=C(O)c1ccccc1Nc1ccccc1 [diphenylamine-2-carboxylate, diphenylamine-2-carboxylic acid]",inhibition of [3H]LXA4 influx,lipoxin transport system; 0.5 mM drug,> 85%
CNc1ccc2oc(C[C@H]3O[C@@]4(CC[C@H]3C)O[C@H]([C@H](C)C(=O)c3ccc[nH]3)[C@H](C)C[C@H]4C)nc2c1C(=O)O [A23187],enhancement of lipoxin uptake,lipoxin transport system; 1 μM,~ 1.5 fold
"N#CC(=Cc1cn(-c2ccccc2)c2ccccc12)C(=O)O [UK-5099, α-cyano-β-(1-phenylindol-3-yl)acrylic acid]",effect on binding of lipoxin to specific receptors,[1],not inhibitable
same,inhibition of [3H]LXA4 influx,lipoxin transport system; 0.2 mM drug,95%
same,initial [3H]LXA4 influx rate in presence of drug,"lipoxin transport system; 0.2 mM drug, 5 nM LXA4",0.030±0.009 fmol/10^6 cells/min
same,effect on uptake of [3H]LXA4,lipoxin transport system; each at 0.2-0.5 mM,inhibited the uptake
"CCCCC/C=C\C/C=C\C/C=C\C/C=C\CCCC(=O)O [Arachidonic Acid, arachidonic acid]",[3H]LXA4 Influx in presence of eicosanoid,lipoxin transport system; eicosanoid 10 nM,0.69 ± 0.03 fmol/10^6 cells/min
same,[3H]LXA4 Influx in presence of eicosanoid,lipoxin transport system; eicosanoid 30 nM,0.66 ± 0.02 fmol/10^6 cells/min
same,[3H]LXA4 Influx in presence of eicosanoid,lipoxin transport system; eicosanoid 100 nM,0.70 ± 0.02 fmol/10^6 cells/min
"CCCCC[C@H](O)/C=C/C=C\C=C\C=C\[C@@H](O)[C@@H](O)CCCC(=O)OC [LXA4 ME, lipoxin A4 methyl ester]",[3H]LXA4 ME Influx,"human neutrophils; Medium, 5 nM, 37° C., 15 s intervals through 1 min",535±136 fmol/10^6 cells/min
same,influx rate relative to LXA4 free acid,human neutrophils; medium alone,"1,000 fold faster"
same,[3H]LXA4 ME Influx,human neutrophils; pHo 6.40,465 ± 45 fmol/10^6 cells/min
same,[3H]LXA4 ME Influx,human neutrophils; pHo 8.40,553 ± 129 fmol/10^6 cells/min
"CCCCCCCCCCCCCC(=O)O[C@@H]1[C@@H](C)[C@@]2(O)[C@@H](C=C(CO)C[C@]3(O)C(=O)C(C)=C[C@@H]23)[C@@H]2C(C)(C)[C@]12OC(C)=O [PMA, phorbol myristate acetate]",increase in initial rate of [3H]LXA4 influx,lipoxin transport system; 100 nM,~ 4 fold
"O=C(O)c1cccnc1Nc1cccc(C(F)(F)F)c1 [niflumate, niflumic acid]",inhibition of [3H]LXA4 influx,lipoxin transport system; 0.2 mM drug,> 85%
"CCCCC[C@H](O)/C=C/[C@H]1[C@H](O)CC(=O)[C@@H]1C/C=C\CCCC(=O)O [PGE2, prostaglandin E2]",[3H]LXA4 Influx in presence of eicosanoid,lipoxin transport system; eicosanoid 10 nM,0.58 ± 0.03 fmol/10^6 cells/min
same,[3H]LXA4 Influx in presence of eicosanoid,lipoxin transport system; eicosanoid 30 nM,0.59 ± 0.03 fmol/10^6 cells/min
same,[3H]LXA4 Influx in presence of eicosanoid,lipoxin transport system; eicosanoid 100 nM,0.60 ± 0.03 fmol/10^6 cells/min
"O=C(O)CI [iodoacetate, iodoacetic acid]",effect of SH-reactive compounds on [3H]LXA4 influx,"lipoxin transport system; 1 mM NEM, 0.4 mM iodoacetate",lacked efficacy; also recorded: do not inhibit
"CCCCC[C@H](O)/C=C/C=C\C/C=C\C/C=C\CCCC(=O)O [15-HETE, (15S)-hydroxy-5,8,11-cis-13-trans-eicosatetraenoic acid]",[3H]LXA4 Influx in presence of eicosanoid,lipoxin transport system; eicosanoid 10 nM,0.73 ± 0.05 fmol/10^6 cells/min
same,[3H]LXA4 Influx in presence of eicosanoid,lipoxin transport system; eicosanoid 30 nM,0.69 ± 0.05 fmol/10^6 cells/min
same,[3H]LXA4 Influx in presence of eicosanoid,lipoxin transport system; eicosanoid 100 nM,0.71 ± 0.06 fmol/10^6 cells/min
CCCCCCCCCCCCCC(=O)O[C@@H]1[C@@H](C)[C@@]2(O)[C@@H](C=C(CO)C[C@@]3(O)C(=O)C(C)=C[C@@H]23)[C@@H]2C(C)(C)[C@]12OC(C)=O [4-α-PMA],effect on lipoxin uptake,lipoxin transport system; biologically inactive isomer of PMA,no effect

# From patent US5750354A, “Lipoxin transport system and uses therefor” (priority 1994, dated 1998)
